Measured values reported in patent US9062070B2, “Inhibitors of the renal outer medullary potassium channel” (Merck Sharp & Dohme Corp., priority 2011, dated 2015).

What was measured:
Kir1.1 (ROMK1) = Kir1.1 (ROMK1) (Homo sapiens (Human), UniProt P48048); assay: Electrophysiology Assay (whole cell voltage clamp, IonWorks Quattro); type: cell-based; details: Chinese hamster ovary cells stably expressing Kir1.1; block during voltage step to 0 mV
Method: Block of Kir1.1 (ROMK1) currents was examined by whole cell voltage clamp (Hamill et. al. […] Prior to an experiment, Kir1.1 expression was induced by overnight incubation with 1 mM sodium butyrate. […] After centrifugation, the cell pellet was resuspended in approximately 4.0 mL of bath solution and placed in the IonWorks instrument. The intracellular solution consisted of (in mM): 80 K gluconate, 40 KCl, 20 KF, 3.2 MgCl2, 3 EGTA, 5 Hepes, pH 7.4. […] Amphotericin B (Sigma A-4888) was prepared as a 40 mg/mL solution in DMSO. Voltage protocols and current recordings were performed using the IonWorks HT software/hardware system. […] No correction for liquid junction potentials was used. The test pulse, consisting of a 100 ms step to 0 mV from a holding potential of −70 mV, followed by a 100 ms voltage ramp from −70 mV to +70 mV, was applied before and after a 6 min compound incubation period. Test compounds were prepared by diluting DMSO stock solutions into the bath solution at 3× the final concentration and placed in the instrument in 96-well polypropylene plates. Current amplitudes were measured using the IonWorks software. To assess compound potency, the fractional block during the voltage step to 0 mV was calculated in Microsoft Excel (Microsoft, Redmond, Calif.), and dose-response curves were fitted with Igor Pro 4.0 (WaveMetrics, Lake Oswego, Oreg.).

hROMK (hKir1.1) = hROMK (hKir1.1) (Homo sapiens (Human), UniProt P48048); assay: Thallium Flux Assay (ROMK channel functional thallium flux, FLIPR-Tetra); type: cell-based; details: HEK293 cells stably expressing hROMK (hKir1.1)
hROMK (hKir1.1), sequence (P48048 whole entry): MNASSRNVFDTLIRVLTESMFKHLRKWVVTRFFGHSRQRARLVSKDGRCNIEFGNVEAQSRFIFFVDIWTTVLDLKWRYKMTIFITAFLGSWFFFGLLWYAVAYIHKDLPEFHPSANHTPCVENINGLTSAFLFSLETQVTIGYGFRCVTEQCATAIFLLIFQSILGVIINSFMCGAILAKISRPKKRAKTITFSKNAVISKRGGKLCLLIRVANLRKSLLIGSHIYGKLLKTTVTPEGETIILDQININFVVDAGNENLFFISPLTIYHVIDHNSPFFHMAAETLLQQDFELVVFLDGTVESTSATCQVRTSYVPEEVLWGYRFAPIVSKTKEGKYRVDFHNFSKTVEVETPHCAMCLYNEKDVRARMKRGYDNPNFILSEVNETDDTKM
Method: HEK293 cells stably expressing hROMK (hKir1.1) were grown at 37° C. in a 10% CO2 humidified incubator in complete growth media: Dulbecco's Modified Eagle Medium supplemented with non-essential amino acids, Penicillin/Streptomycin/Glutamine, G418 and FBS. At >80% confluency, aspirate the media from the flask and rinse with 10 mL Calcium/Magnesium-free PBS. Add 5 mL of 1× trypsin (prepared in Ca/Mg Free PBS) to T-225 flask and return flask to 37° C./CO2 incubator for 2-3 minutes. To dislodge the cell, gently bang the side of the flask with your hand. Triturate the cells completely and then transfer the cells to 25 mL complete media. Centrifuge at 1,500 rpm for 6 min followed by resuspension in complete growth media and determine cell concentration. For typical re-seeding, 4E6 cells/T-225 flask will attain>80% confluency in 4 days. Under ideal growth conditions and appropriate tissue culture practices, this cell line is stable for 40-45 passages.
• FluxOR™ Reagent (Component A) • FluxOR™ Assay Buffer (Component B)—10× Concentrate • PowerLoad™ Concentrate (Component C)—100× Concentrate • Probenecid (Component D)—Lyophilized sample is kept at −20° C. Water soluble, 100× after solubilization in 1 mL water. Store at 4° C. • FluxOR™ Chloride-free Buffer (Component E)—5× Concentrate • Potassium sulfate (K2SO4) Concentrate (Component F)—125 mM in water. Store at 4° C. • Thallium sulfate (Tl2SO4) Concentrate (Component G)—50 mM in water. Store at 4° C. • DMSO (dimethyl sulfoxide, Component H)—1 mL (100%) Reagent Preparation: FluxOR Working Solutions • 1000× FluxOR™ Reagent: Reconstitute a vial of component A in 100 μl DMSO; Mix well; Store 10 μl aliquots at −20° C. • 1× FluxOR™ Assay Buffer: Dilute Component B 10-fold with water; Adjust pH to 7.4 with Hepes/NaOH; Filter and store at 4° C. • Probenecid/Assay Buffer: 100 mL of 1× FluxOR™ Assay Buffer; 1 mL of reconstituted component D; Store at 4° C. • Loading Buffer (per microplate): 10 μl 1000× FluxOR™ Reagent; 100 μl component C; 10 mL Probenecid/Assay Buffer • Compound Buffer (per microplate): 20 mL Probenecid/Assay Buffer; 0.3 mM ouabain (10 mM ouabain in water can be stored in amber bottle/aluminum foil at room temperature); Test compound • 1× FluxOR™ Chloride-Free Buffer: Prepare 1× working solution in water. Can be stored at room temperature • Stimulant Buffer (prepared at 5× final concentration in 1× FluxOR™ Chloride-Free Buffer): 7.5 mM Thallium sulfate and 0.75 mM Potassium sulfate (to give a final assay concentration of 3 mM Thallium/0.3 mM Potassium). Store at 4° C. when not in use. If kept sterile, this solution is good for months. Assay Protocol—
The ROMK channel functional thallium flux assay is performed in 384 wells, using the FLIPR-Tetra instrument. HEK-hKir1.1 cells are seeded in Poly-D-Lysine microplates and kept in a 37° C.-10% CO2 incubator overnight. On the day of the experiment, the growth media is replaced with the FluxOR™ reagent loading buffer and incubated, protected from light, at ambient temperature (23-25° C.) for 90 min. The loading buffer is replaced with assay buffer±test compound followed by 30 min incubation at ambient temperature, where the Thallium/Potassium stimulant is added to the microplate.
• 1. Seed HEK-hKir1.1 cells (50 μl at 20,000 cells/well) in 384-well PDL coated Microplates • 2. Allow cells to adhere overnight in humidified 37° C./10% CO2 incubator • 3. Completely remove cell growth media from microplate and replace with 25 μl loading buffer • 4. Incubate Microplate at room temperature, protected form light, for 90 min • 5. Remove loading buffer and replace with 25 μl 1× Assay Buffer±test compound. • 6. Incubate microplate at room temperature, protected form light, for 30 min • 7. At FLIPR-Tetra 384: Add stimulant (Thallium/Potassium) solution to microplate and monitor fluorescence. Excitation=400 nm, Emission=460 & 580 nm. Collect data for ˜10 min. Data Calculation—

Kir1.1 (ROMK1), sequence (P48048 whole entry): as above

Row | SMILES | IC50 (Kir1.1 (ROMK1)) | IC50 (hROMK (hKir1.1))
1 | Cc1c([C@@H]2CN3CCN(C(=O)C4CCc5nc(-n6cnnn6)ncc54)C[C@@H]3CO2)ccc(F)c1C#N (single isomer, unassigned) [Example 2C] | 150 nM | 120 nM
2 | Cc1c([C@@H]2CN3CCN(C(=O)C4CCc5nc(-n6cnnn6)ncc54)C[C@@H]3CO2)ccc(F)c1C#N (single isomer, unassigned) [Example 2D] | 100 nM | 130 nM
3 | Cc1c([C@@H]2CN3CCN(C(=O)C4CCc5nc(-n6cnnn6)ncc54)C[C@H]3CO2)ccc(F)c1C#N (single isomer, unassigned) [Example 2E] | – | 130 nM
4 | Cc1c([C@@H]2CN3CCN(C(=O)C4CCc5nc(-n6cnnn6)ncc54)C[C@H]3CO2)ccc(F)c1C#N (single isomer, unassigned) [Example 2F] | – | 390 nM
5 | Cc1c([C@H]2CN3CCN(C(=O)C4CCc5nc(-n6cnnn6)ncc54)C[C@H]3CO2)ccc(F)c1C#N (single isomer, unassigned) [Example 2G] | 130 nM | 270 nM
6 | Cc1c([C@H]2CN3CCN(C(=O)C4CCc5nc(-n6cnnn6)ncc54)C[C@H]3CO2)ccc(F)c1C#N (single isomer, unassigned) [Example 2H] | 100 nM | 140 nM
7 | Cc1c([C@H]2CN3CCN(C(=O)C4CCc5cc(-n6cnnn6)ncc54)C[C@H]3CO2)ccc(F)c1C#N (single isomer, unassigned) [Example 35] | 110 nM | 180 nM
8 | Cc1c([C@@H]2CN3CCN(C(=O)C4CCc5cc(-n6cnnn6)ncc54)C[C@H]3CN2)ccc(F)c1C#N (single isomer, unassigned) [Example 96A] | 100 nM | 200 nM
9 | Cc1c([C@@H]2CN3CCN(C(=O)C4CCc5cc(-n6cnnn6)ncc54)C[C@H]3CN2)ccc(F)c1C#N (single isomer, unassigned) [Example 96B] | > 1000 nM | > 1000 nM
10 | Cc1c(C2CN3CCN(C(=O)[C@H]4CCc5nc(-n6cnnn6)ncc54)C[C@@H]3CO2)ccc(F)c1C#N (stereo in doubt) [Example 2A, 6-Fluoro-2-methyl-3-[(3S,9aR)-8-{[(5S)-2-(1H-tetrazol-1-yl)-6,7-dihydro-5H-cyclopenta[d]pyrimidin-5-yl]carbonyl}octahydropyrazino[2,1-c][1,4]oxazin-3-yl]benzonitrile] | 100 nM | 220 nM
11 | Cc1c([C@H]2CN3CCN(C(=O)[C@@H]4CCc5nc(-n6cnnn6)ncc54)C[C@@H]3CO2)ccc(F)c1C#N [Example 2B, 6-fluoro-2-methyl-3-[(3S,9aR)-8-{[(5R)-2-(1H-tetrazol-1-yl)-6,7-dihydro-5H-cyclopenta[d]pyrimidin-5-yl]carbonyl}octahydropyrazino[2,1-c][1,4]oxazin-3-yl]benzonitrile] | 100 nM | 350 nM
12 | Cc1c([C@H]2CN3CCN(C(=O)C4CCc5nc(-n6cnnn6)ncc54)C[C@H]3CO2)ccc2c1COC2=O (some centres unmarked) [Example 3] | 530 nM | 250 nM
13 | Cc1c([C@H]2CN3CCN(C(=O)C4CCc5nc(-n6cnnn6)ccc54)C[C@H]3CO2)ccc(F)c1C#N (some centres unmarked) [Example 4] | 180 nM | 460 nM
14 | Cc1c([C@H]2CN3CCN(C(=O)C4CCc5nc(-n6cnnn6)ccc54)C[C@H]3CO2)ccc(F)c1C#N (some centres unmarked) [Example 5] | 100 nM | 170 nM
15 | Cc1c([C@@H]2CN3CCN(C(=O)C4CCc5nc(-n6cnnn6)ccc54)C[C@H]3CO2)ccc(F)c1C#N (some centres unmarked) [Example 6] | 100 nM | 240 nM
16 | Cc1c([C@@H]2CN3CCN(C(=O)C4CCc5nc(-n6cnnn6)ccc54)C[C@H]3CO2)ccc(F)c1C#N (some centres unmarked) [Example 7] | 80 nM | 140 nM
17 | Cc1c([C@H]2CN3CCN(C(=O)C4CCCc5nc(-n6cnnn6)ccc54)C[C@H]3CO2)ccc(F)c1C#N (some centres unmarked) [Example 8] | 240 nM | 350 nM
18 | Cc1c([C@H]2CN3CCN(C(=O)C4CCCc5nc(-n6cnnn6)ccc54)C[C@H]3CO2)ccc(F)c1C#N (some centres unmarked) [Example 9] | 190 nM | 610 nM
19 | Cc1c([C@@H]2CN3CCN(C(=O)C4CCCc5nc(-n6cnnn6)ccc54)C[C@H]3CO2)ccc(F)c1C#N (some centres unmarked) [Example 10] | 180 nM | 410 nM
20 | Cc1c([C@@H]2CN3CCN(C(=O)C4CCCc5nc(-n6cnnn6)ccc54)C[C@H]3CO2)ccc(F)c1C#N (some centres unmarked) [Example 11] | 240 nM | 360 nM
21 | Cc1c([C@@H]2CN3CCN(C(=O)C4CCCc5nc(-n6cnnn6)ccc54)C[C@@H]3CO2)ccc(F)c1C#N (some centres unmarked) [Example 12] | 160 nM | 450 nM
22 | Cc1c([C@H]2CN3CCN(C(=O)C4CCCc5nc(-n6cnnn6)ccc54)C[C@@H]3CO2)ccc(F)c1C#N (some centres unmarked) [Example 13] | 260 nM | 320 nM
23 | O=C1OCCc2cc([C@@H]3CN4CCN(C(=O)C5CCCc6nc(-n7cnnn7)ccc65)C[C@H]4CO3)ccc21 (some centres unmarked) [Example 14] | 210 nM | 470 nM
24 | Cc1c([C@@H]2CN3CCN(C(=O)C4CCc5nc(-n6cnnn6)ccc54)C[C@H]3CO2)csc1C#N (some centres unmarked) [Example 15] | 60 nM | 540 nM
25 | N#Cc1c(F)ccc([C@@H]2CN3CCN(C(=O)C4CCc5nc(-n6cnnn6)ccc54)C[C@H]3CO2)c1F (some centres unmarked) [Example 18] | 110 nM | 400 nM
26 | N#Cc1c(F)ccc([C@H]2CN3CCN(C(=O)C4CCc5nc(-n6cnnn6)ccc54)C[C@H]3CO2)c1F (some centres unmarked) [Example 19] | 90 nM | 420 nM
27 | Cc1c(C#N)cccc1[C@@H]1CN2CCN(C(=O)C3CCc4nc(-n5cnnn5)ccc43)C[C@H]2CO1 (some centres unmarked) [Example 71] | 120 nM | –
28 | Cc1c(C#N)cccc1[C@@H]1CN2CCN(C(=O)C3CCc4cc(-n5cnnn5)ncc43)C[C@@H]2CO1 (some centres unmarked) [Example 94] | – | 290 nM
29 | O=C1OCc2c1ccc([C@@H]1CN3CCN(C(=O)C4CCc5nc(-n6cnnn6)ccc54)C[C@H]3CO1)c2C1CC1 (some centres unmarked) [Example 95] | – | 180 nM
